The subject of test [1] is TopBP1(1–290) double mutants. The test is described as follows: Fluorescence polarization binding, double mutants. Also noted: species or system human. Conditions: putative binding sites in both BRCT1 and BRCT2 disrupted. (In fluorescence polarisation assays a small probe gives low polarisation when free and higher when bound to something large.)
Another test deals with TopBP1(1–290) wild-type (Homo sapiens, UniProt Q92547). In kind it is binding. Conditions: fluorescence polarization; 10 nM fluorescein-labelled peptide; 4°C, 30 min.
Test [2] concerns TopBP1(1–290). The test is described as follows: Co-precipitation. Format: binding, human. Conditions: Glutathione Sepharose; no Mg-ATP; SDS–PAGE.
For test [3], the target named is TopBP1(1–290) (human, UniProt Q92547 1-290). The test is described as follows: fluorescence polarisation.

Where no end group is shown, it is not given here. [ ]: non-standard residue; d: D form. pS = N[C@@H](COP(=O)(O)O)C(=O)O

Data on four molecules can be found in paper PMC3017600 (Nucleic Acids Research, 2010).

Broadly, the Kd is the concentration at which binding is half-saturated.

Sequence of TopBP1(1–290) (human, UniProt Q92547 1-290) (Q92547 1-290): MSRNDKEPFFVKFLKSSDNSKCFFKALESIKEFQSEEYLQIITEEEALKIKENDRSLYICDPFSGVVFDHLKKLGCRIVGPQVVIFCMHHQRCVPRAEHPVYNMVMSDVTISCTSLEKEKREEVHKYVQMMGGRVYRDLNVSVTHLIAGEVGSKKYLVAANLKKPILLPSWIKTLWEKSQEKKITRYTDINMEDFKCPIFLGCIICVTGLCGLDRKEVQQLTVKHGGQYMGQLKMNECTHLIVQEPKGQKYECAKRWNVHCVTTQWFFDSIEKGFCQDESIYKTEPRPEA
Sequence of TopBP1(1–290) wild-type (Q92547 1-290): as above

Take “fluorescein-GGPSPVLAED[pS]EGEG [Rad9, pS387]”: the “Interaction with TopBP1(1–290) double mutants (in words)” value in test [1] is recorded as “no measurable interaction”.

For the molecule “fluorescein-GGSDTDSH[pS]QDLGSPE [Rad9, pS272]”, the “Binding to wild-type TopBP1(1–290) (in words)” value at TopBP1(1–290) wild-type is “no significant affinity was observed”.

B1: GST-Rad9Tail: GST-fusion with the C-terminus of human Rad9 (amino acids 264–391), expressed in E. coli (protein)
chain: TLSDTDSHSQDLGSPERHQPVPQLQAHSTPHPDDFANDDIDSYMIAMETTIGNEGSRVLPSISLSPGPQPPKSPGPHSEEEDEAEPSTVPGTPPPKKFRSLFFGSILAPVRSPQGPSPVLAEDSEGEG
modifications: left off: GST, N-terminal, kept
On to B1, for which the “Co-precipitation of TopBP1(1–290) by GST fusion incubated with CK2α in the absence of Mg-ATP” value in the test on TopBP1(1–290) [2] is on record as “failed to co-precipitate detectable”.

B2: Rad9, pS387 fluorescein-labelled peptide (peptide)
peptide: fluorescein-GGPSPVLAED[pS]EGEG
modifications: also: phosphoserine at 387 (Rad9 numbering)
B2: the equilibrium dissociation constant (Kd) in the test with TopBP1(1–290) [3] came to 2100 nM.
